Patent US11046686B2, “Thiadiazole IRAK4 compounds” (Gilead Sciences, Inc., priority 2018, dated 2021)
Where two headings read alike, the source gives them in different places.

Tested on: TNFα
Experiment: IRAK4 Monocyte TNFα Cell Based Assay
Parameters: species or system human
Details: human monocytes
Experimental: IRAK4 Monocyte TNFα Cell Based Assay Procedure:
The cell suspension was then plated at a density of 5,000 cells/well onto black 384 well Greiner clear bottom plates. Plates were pre-spotted with test compounds and serially diluted in DMSO where 40 nL/well were delivered using the Echo 550 acoustic liquid dispenser (Labcyte®) for a final DMSO concentration of 0.1%. Plated cells were treated with compound for 1 hour at 37° C. Cells were then stimulated with 50 pg/ml of LPS (Sigma) excluding outside columns of plate used for unstimulated cell control wells. Cells were incubated for an additional 4 hours at 37° C. Cells were then spun out of the media and 5 μl of sample were taken and analyzed for total TNFα content using the TR-FRET Human TNFα detection system (CisBio). This system utilizes two labeled antibodies (cryptate and XL665) that bind to two different epitopes of the TNFα molecule and produce FRET signal proportional to the concentration of TNFα in the sample. Detection antibodies are mixed 50:50 and 5 μL were dispensed into each well. Plates were covered with clear seals and incubated at room temp overnight. […] Percent of control was calculated as follows: % Control=100×(Ratiosample−Ratio0% stimulation)/(Ratio100% Stimulation−Ratio0% Stimulation) where unstimulated cells (0% stimulation) were the negative control and stimulated cells (100% stimulation) were used as the positive control.

[1] = second part of Table 2, compounds 33-343, unit inferred, read-out: EC50 MONO TNF HTRF
[2] = Homo sapiens, Monocyte, LPS stimulated, compounds 1-32, read-out: EC50 TNF

SMILES	EC50 [1]	also measured
CC(=O)N[C@@H]1CN(c2nnc(-c3cnc(-c4ccc5cc(C#N)cnn45)cc3NC(C)C)s2)CC12CC2 [Compound 324]	19.1 nM	–
CC(C)Nc1cc(-c2ccc3cc(C#N)cnn23)ncc1-c1nnc(-n2cccn2)s1 [Compound 325]	1000 nM	–
CC(=O)NC1CN(c2nnc(-c3cnc(-c4ccc5cc(C#N)cnn45)cc3NC(C)C)s2)CC1(F)F (stereo not shown) [Compound 327]	10.2 nM	–
CC(C)Nc1cc(-c2ccc3cc(C#N)cnn23)ncc1-c1nnc(N2CC(N3CCC(F)(F)C3)C2)s1 [Compound 328]	80.5 nM	–
CC(C)Nc1cc(-c2ccc3cc(C#N)cnn23)ncc1-c1nnc(N2CCC[C@H]2CO)s1 [Compound 329]	54.2 nM	–
CC(=O)N[C@@H]1CCN(c2nnc(-c3cnc(-c4ccc5cc(C#N)cnn45)cc3NC(C)C)s2)C1 [Compound 330]	47.1 nM	–
CC(=O)N[C@H]1CCN(c2nnc(-c3cnc(-c4ccc5cc(C#N)cnn45)cc3NC(C)C)s2)C1 [Compound 331]	81.4 nM	–
CC(C)Nc1cc(-c2ccc3cc(C#N)cnn23)ncc1-c1nnc(C2CCC(C#N)CC2)s1 (stereo not shown) [Compound 333]	1000 nM	–
CC(=O)NC12CCC(c3nnc(-c4cnc(-c5ccc6cc(C#N)cnn56)cc4NC4COC4)s3)(C1)C2 [Compound 334]	98.9 nM	–
CC(C)(O)C(=O)NC12CCC(c3nnc(-c4cnc(-c5ccc6cc(C#N)cnn56)cc4NC4COC4)s3)(C1)C2 [Compound 335]	48.9 nM	–
CS(C)(=O)=NCC(=O)NC12CCC(c3nnc(-c4cnc(-c5ccc6cc(C#N)cnn56)cc4NC4CCOCC4)s3)(CC1)CC2 [Compound 338]	2.7 nM	–
CC(C)Nc1cc(-c2ccc3cc(C#N)cnn23)ncc1-c1nnc([C@H]2CC[C@H](NC(=O)CN=S(C)(C)=O)CC2)s1 [Compound 339]	9.1 nM	–
CC(C)Nc1cc(-c2ccc3cc(C#N)cnn23)ncc1-c1nnc([C@H]2CC[C@H](NC(=O)C3CCN(C)CC3)CC2)s1 [Compound 340]	9.1 nM	–
CC(C)Nc1cc(-c2ccc3cc(C#N)cnn23)ncc1-c1nnc(C2CCC(NC(=O)C(C)(C)C(=O)O)CC2)s1 (stereo not shown) [Compound 341]	72.4 nM	–
CC(=O)NC1CCN(C(=O)c2nnc(-c3cnc(-c4ccc5cc(C#N)cnn45)cc3NC(C)C)s2)CC1 [Example 8, N-(1-(5-(6-(3-cyanopyrrolo[1,2-b]pyridazin-7-yl)-4-(isopropylamino)pyridin-3-yl)-1,3,4-thiadiazole-2-carbonyl)piperidin-4-yl)acetamide]	–	EC50 [2]: 7540 nM
CC(C)Nc1cc(-c2ccc3cc(C#N)cnn23)ncc1-c1nnc(C(=O)N2CCCC2)s1 [Example 9, 7-(4-(isopropylamino)-5-(5-(pyrrolidine-1-carbonyl)-1,3,4-thiadiazol-2-yl)pyridin-2-yl)pyrrolo[1,2-b]pyridazine-3-carbonitrile]	–	EC50 [2]: 2130 nM
CC(=O)N[C@H]1CC[C@H](c2nnc(-c3cnc(-c4ccc5cc(C#N)cnn45)cc3NC(C)C)s2)CC1 [Example 24, N-((1r,4r)-4-(5-(6-(3-cyanopyrrolo[1,2-b]pyridazin-7-yl)-4-(isopropylamino)pyridin-3-yl)-1,3,4-thiadiazol-2-yl)cyclohexyl)acetamide]	–	EC50 [2]: 14 nM
CC(C)Nc1cc(-c2ccc3cc(C#N)cnn23)ncc1-c1nnc(N2CCCC2)s1 [Example 29, 7-(4-(isopropylamino)-5-(5-(pyrrolidin-1-yl)-1,3,4-thiadiazol-2-yl)pyridin-2-yl)pyrrolo[1,2-b]pyridazine-3-carbonitrile]	–	EC50 [2]: 4180 nM
CC(C)Nc1cc(-c2ccc3cc(C#N)cnn23)ncc1-c1nnc(C2CCOCC2)s1 [Example 32]	–	EC50 (LPS stimulated, compounds 1-32, read-out: EC50 TNF): 211 nM

SMILES	EC50 [1]	also measured
COC(=O)N[C@H]1CC[C@H](Nc2cc(-c3ccc4cc(C#N)cnn34)ncc2-c2nnc([C@H]3CC[C@H](NC(C)=O)CC3)s2)CC1 [Example 34, methyl ((1R,4r)-4-((5-(5-((1r,4R)-4-acetamidocyclohexyl)-1,3,4-thiadiazol-2-yl)-2-(3-cyanopyrrolo[1,2-b]pyridazin-7-yl)pyridin-4-yl)amino)cyclohexyl)carbamate]	4.9 nM	–
CC(=O)N[C@@H]1[C@@H]2CC[C@H]1CN(c1nnc(-c3cnc(-c4ccc5cc(C#N)cnn45)cc3NC(C)C)s1)C2 [Example 38]	3.5 nM	–
CC(=O)N[C@H]1[C@@H]2CC[C@H]1CN(c1nnc(-c3cnc(-c4ccc5cc(C#N)cnn45)cc3NC(C)C)s1)C2 [Example 39]	10.4 nM	–
CC(=O)NC[C@H]1CCCN1C(=O)c1nnc(-c2cnc(-c3ccc4cc(C#N)cnn34)cc2NC(C)C)s1 [Example 42]	35.7 nM	–
COC(=O)N[C@H]1CCN(C(=O)c2nnc(-c3cnc(-c4ccc5cc(C#N)cnn45)cc3NC(C)C)s2)C1 [Example 43, methyl (S)-(1-(5-(6-(3-cyanopyrrolo[1,2-b]pyridazin-7-yl)-4-(isopropylamino)pyridin-3-yl)-1,3,4-thiadiazole-2-carbonyl)pyrrolidin-3-yl)carbarnate]	21.9 nM	–
CC(=O)N[C@H]1[C@@H]2C[C@H]1CN(c1nnc(-c3cnc(-c4ccc5cc(C#N)cnn45)cc3NC(C)C)s1)C2 [Example 45]	11.8 nM	–
CC(C)Nc1cc(-c2ccc3cc(C#N)cnn23)ncc1-c1nnc(C(=O)N2CC[C@@H](NC(=O)C3CC3)C2)s1 [Example 47]	5680 nM	–
COC(=O)NC[C@H]1C[C@H](Nc2cc(-c3ccc4cc(C#N)cnn34)ncc2-c2nnc(N3CCN4CCOC[C@H]4C3)s2)C1 [Example 51, methyl (((1R,3r)-3-((2-(3-cyanopyrrolo[1,2-b]pyridazin-7-yl)-5-(5-((R)-hexahydropyrazino[2,1-c][1,4]oxazin-8(1H)-yl)-1,3,4-thiadiazol-2-yl)pyridin-4-yl)amino)cyclobutyl)methyl)carbamate]	4.7 nM	–
COC(=O)NC[C@H]1C[C@H](Nc2cc(-c3ccc4cc(C#N)cnn34)ncc2-c2nnc(N3C[C@H]4CC[C@@H](C3)[C@@H]4NC(C)=O)s2)C1 [Example 52]	4.1 nM	–
CC(=O)N[C@@H]1[C@@H]2CC[C@H]1CN(c1nnc(-c3cnc(-c4ccc5cc(C#N)cnn45)cc3N[C@H](C)C#N)s1)C2 [Example 53, N-((1R,5S,8S)-3-(5-(4-(((R)-1-cyanoethyl)amino)-6-(3-cyanopyrrolo[1,2-b]pyridazin-7-yl)pyridin-3-yl)-1,3,4-thiadiazol-2-yl)-3-azabicyclo[3.2.1]octan-8-yl)acetamide]	0.6 nM	–
COC(=O)N[C@H]1CC[C@H](Nc2cc(-c3ccc4cc(C#N)cnn34)ncc2-c2nnc(N3C[C@H]4CC[C@@H](C3)[C@@H]4NC(C)=O)s2)CC1 [Example 54, methyl ((1R,4r)-4-((5-(5-((1R,5S,8S)-8-acetamido-3-azabicyclo[3.2.1]octan-3-yl)-1,3,4-thiadiazol-2-yl)-2-(3-cyanopyrrolo[1,2-b]pyridazin-7-yl)pyridin-4-yl)amino)cyclohexyl)carbamate]	2.4 nM	–
CC(=O)N[C@H]1C[C@H]2CC[C@@H](C1)N2c1nnc(-c2cnc(-c3ccc4cc(C#N)cnn34)cc2NC(C)C)s1 [Example 55, N-((1R,3r,5S)-8-(5-(6-(3-cyanopyrrolo[1,2-b]pyridazin-7-yl)-4-(isopropylamino)pyridin-3-yl)-1,3,4-thiadiazol-2-yl)-8-azabicyclo[3.2.1]octan-3-yl)acetamide]	115 nM	–
CC(=O)N[C@@H]1C[C@H]2CC[C@@H](C1)N2c1nnc(-c2cnc(-c3ccc4cc(C#N)cnn34)cc2NC(C)C)s1 [Example 56, N-((1R,3s,5S)-8-(5-(6-(3-cyanopyrrolo[1,2-b]pyridazin-7-yl)-4-(isopropylamino)pyridin-3-yl)-1,3,4-thiadiazol-2-yl)-8-azabicyclo[3.2.1]octan-3-yl)acetamide]	8.3 nM	–
CC(C)Nc1cc(-c2ccc3cc(C#N)cnn23)ncc1-c1nnc(N2C[C@H]3CC[C@@H](C2)[C@@H]3NC(=O)N2CCOCC2)s1 [Example 57, N-((1R,5S,8s)-3-(5-(6-(3-cyanopyrrolo[1,2-b]pyridazin-7-yl)-4-(isopropylamino)pyridin-3-yl)-1,3,4-thiadiazol-2-yl)-3-azabicyclo[3.2.1]octan-8-yl)morpholine-4-carboxamide]	6.8 nM	–
CC(C)Nc1cc(-c2ccc3cc(C#N)cnn23)ncc1-c1nnc(N2C[C@H]3CC[C@@H](C2)[C@@H]3NS(C)(=O)=O)s1 [Example 58, N-((1R,5S,8s)-3-(5-(6-(3-cyanopyrrolo[1,2-b]pyridazin-7-yl)-4-(isopropylamino)pyridin-3-yl)-1,3,4-thiadiazol-2-yl)-3-azabicyclo[3.2.1]octan-8-yl)methanesulfonamide]	9.3 nM	–
COC(=O)N[C@@H]1[C@@H]2CC[C@H]1CN(c1nnc(-c3cnc(-c4ccc5cc(C#N)cnn45)cc3NC(C)C)s1)C2 [Example 59, methyl ((1R,5S,8s)-3-(5-(6-(3-cyanopyrrolo[1,2-b]pyridazin-7-yl)-4-(isopropylamino)pyridin-3-yl)-1,3,4-thiadiazol-2-yl)-3-azabicyclo[3.2.1]octan-8-yl)carbamate]	14.7 nM	–
CC(C)Nc1cc(-c2ccc3cc(C#N)cnn23)ncc1-c1nnc(N2C[C@H]3CC[C@@H](C2)[C@@H]3N)s1 [Example 60, 7-(5-(5-((1R,5S,8s)-8-amino-3-azabicyclo[3.2.1]octan-3-yl)-1,3,4-thiadiazol-2-yl)-4-(isopropylamino)pyridin-2-yl)pyrrolo[1,2-b]pyridazine-3-carbonitrile]	8.5 nM	–
CC(=O)N[C@@H]1CCN(c2nnc(-c3cnc(-c4ccc5cc(C#N)cnn45)cc3NC(C)C)s2)C[C@@H]1O [Example 63]	13.8 nM	–
